Assays:
beet [1] = experiment: Test Example 5: effect on crop by foliage application, plastic box (Table 20, symbol f); type: in vivo; settings: AAH 320 g/ha, three weeks after application
In short: (§1)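 Plants sown in sterilized diluvial soil and grown 14 days in a greenhouse at 25° C to 30° C, then sprayed on the foliage with the compound's emulsion diluted in water to a predetermined herbicide amount. Injury to weeds and crops scored three weeks after application on a visual rating scale.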

beet [2] = experiment: Test Example 4: effect on crop by soil treatment (Table 19, symbol f); type: in vivo; settings: amount of applied herbicide 320 g/ha
In short: (§2)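 Seeds were sown in sterilized diluvial soil and covered with about 1.5 cm of soil. An emulsion formulation diluted with water to a predetermined herbicide amount was sprayed evenly onto the soil surface. Plants grew in a greenhouse at 25° C. to 30° C., and the effect was scored three weeks after application using criteria from an earlier test.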

rice flat sedge = experiment: Test Example 3: herbicidal effect by foliage application, Wagner pot (Table 18, symbol E); type: in vivo, rice flat sedge (Cyperus iria); settings: 320 g/ha
In short: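 Plants were sown in alluvial soil held under 0.1–0.5 cm standing water and grown 14 days in a greenhouse at 25–30 °C. An emulsifiable formulation, water-diluted to the set dose, was then sprayed onto the foliage, and effects were scored three weeks later using previously defined criteria.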

barnyard grass [3] = experiment: Test Example 4: herbicidal effect by soil treatment (Table 19, symbol H); type: in vivo, barnyard grass (Echinochloa crus-galli); settings: amount of applied herbicide 320 g/ha
In short: as §2

corn [4] = experiment: Test Example 4: effect on crop by soil treatment (Table 19, symbol c); type: in vivo; settings: amount of applied herbicide 320 g/ha
In short: as §2

green foxtail [5] = experiment: Test Example 5: herbicidal effect by foliage application, plastic box (Table 20, symbol G); type: in vivo, green foxtail (Setaria viridis); settings: foliage application, AAH 320 g/ha, three weeks after application
In short: as §1

green foxtail [6] = experiment: Test Example 4: herbicidal effect by soil treatment (Table 19, symbol G); type: in vivo, green foxtail (Setaria viridis); settings: amount of applied herbicide 320 g/ha
In short: as §2

Italian ryegrass [7] = experiment: Test Example 5: herbicidal effect by foliage application, plastic box (Table 20, symbol K); type: in vivo, Italian ryegrass (Lolium multiflorum); settings: foliage application, AAH 320 g/ha, three weeks after application
In short: as §1

Italian ryegrass [8] = experiment: Test Example 4: herbicidal effect by soil treatment (Table 19, symbol K); type: in vivo, Italian ryegrass (Lolium multiflorum); settings: amount of applied herbicide 320 g/ha
In short: as §2

corn [9] = experiment: Test Example 5: effect on crop by foliage application, plastic box (Table 20, symbol c); type: in vivo; settings: AAH 320 g/ha, three weeks after application
Description: (§3) [Test Example 5] Herbicidal Effect Test by Foliage Application
(§4) Sterilized diluvial soil was placed in a plastic box having a length of 21 cm, a width of 13 cm, and a depth of 7 cm. The seeds of each of southern crabgrass, green foxtail, barnyard grass, wild oat, blackgrass, Italian ryegrass, windgrass, velvetleaf, redroot pigweed, lambsquarters, chickweed, false cleavers, persian speedwell, corn, soybean, rice, wheat, beet, and rapeseed were sowed in a spot-like manner and covered with the soil having a thickness of about 1.5 cm. Thereafter, the plants were grown in a greenhouse at 25° C. to 30° C. After 14-day growth of the plants, the emulsion agent of the compound of the present invention prepared according to Formulation Example 2 was diluted with water so as to achieve a predetermined herbicide amount, and the diluted emulsion agent was uniformly applied to a foliage part with a small-sized spray. Three weeks after the herbicide application, the effect of the herbicide on each plant was evaluated according to the criteria of Test Example 1.

southern crabgrass = experiment: Test Example 4: herbicidal effect by soil treatment (Table 19, symbol F); type: in vivo, southern crabgrass (Digitaria ciliaris); settings: amount of applied herbicide 320 g/ha
In short: as §2

barnyard grass [10] = experiment: Test Example 5: herbicidal effect by foliage application, plastic box (Table 20, symbol H); type: in vivo, barnyard grass (Echinochloa crus-galli); settings: foliage application, AAH 320 g/ha, three weeks after application
In short: as §1

wild oat = experiment: Test Example 4: herbicidal effect by soil treatment (Table 19, symbol I); type: in vivo, wild oat (Avena fatua); settings: amount of applied herbicide 320 g/ha
In short: as §2

soybean = experiment: Test Example 4: effect on crop by soil treatment (Table 19, symbol d); type: in vivo; settings: amount of applied herbicide 320 g/ha
Description: [Test Example 4] Herbicidal Effect Test by Soil Treatment
as §4, with “Subsequently,” for “Thereafter, the plants were grown in a greenhouse at 25° C. to 30° C. After 14-day growth of the plants,”, “the surface of the soil” for “a foliage part”, “spray. The plastic box was placed in a greenhouse at 25° C. to 30° C. for growth of the plants.” for “spray.”

windgrass = experiment: Test Example 4: herbicidal effect by soil treatment (Table 19, symbol L); type: in vivo, windgrass (Apera spica-venti); settings: amount of applied herbicide 320 g/ha
In short: as §2

chickweed = experiment: Test Example 4: herbicidal effect by soil treatment (Table 19, symbol P); type: in vivo, common chickweed (Stellaria media); settings: amount of applied herbicide 320 g/ha
In short: as §2

velvetleaf = experiment: Test Example 5: herbicidal effect by foliage application, plastic box (Table 20, symbol M); type: in vivo, velvetleaf (Abutilon theophrasti); settings: foliage application, AAH 320 g/ha, three weeks after application
In short: as §1

rapeseed = experiment: Test Example 5: effect on crop by foliage application, plastic box (Table 20, symbol g); type: in vivo; settings: AAH 320 g/ha, three weeks after application
Description: as §3, §4

blackgrass = experiment: Test Example 4: herbicidal effect by soil treatment (Table 19, symbol J); type: in vivo, blackgrass (Alopecurus myosuroides); settings: amount of applied herbicide 320 g/ha
In short: as §2

With `Cc1nn(C)c(=O)c(-c2c(-n3cc(Cl)cn3)sc3ccccc23)c1O` [Compound No. 1-097, 5-hydroxy-2,6-dimethyl-4-(2-(4-chloro-1H-pyrazol-1-yl)benzo[b]thiophen-3-yl)pyridazin-3(2H)-one] the “f: beet, effect on crop” value (beet [1]) was 5 (Herbicidal rate of 90% or more (almost completely withered)), the “effect rating on crop, f: beet” value (beet [2]) was 0 (Herbicidal rate of 5% or less (almost no effect)) and the “herbicidal effect on E (rice flat sedge), rating 0-5” value (rice flat sedge) was 4 (Herbicidal rate of 70% or more and less than 90%). For the same molecule, the “herbicidal effect rating, H: barnyard grass” value (barnyard grass [3]) was 0 (Herbicidal rate of 5% or less (almost no effect)), the “effect rating on crop, c: corn” value (corn [4]) was 0 (Herbicidal rate of 5% or less (almost no effect)) and the “G: green foxtail, herbicidal effect” value (green foxtail [5]) was 0 (Herbicidal rate of 5% or less (almost no effect)). The “herbicidal effect rating, G: green foxtail” value (green foxtail [6]) was 0 (Herbicidal rate of 5% or less (almost no effect)), the “K: Italian ryegrass, herbicidal effect” value (Italian ryegrass [7]) was 2 (Herbicidal rate of 20% or more and less than 40%) and the “herbicidal effect rating, K: Italian ryegrass” value (Italian ryegrass [8]) was 0 (Herbicidal rate of 5% or less (almost no effect)). The “c: corn, effect on crop” value (corn [9]) was 0 (Herbicidal rate of 5% or less (almost no effect)), the “herbicidal effect rating, F: southern crabgrass” value (southern crabgrass) was 0 (Herbicidal rate of 5% or less (almost no effect)) and the “H: barnyard grass, herbicidal effect” value (barnyard grass [10]) was 0 (Herbicidal rate of 5% or less (almost no effect)). For the same molecule, the melting point was 232 to 234 °C, the “herbicidal effect rating, I: wild oat” value (wild oat) was 0 (Herbicidal rate of 5% or less (almost no effect)) and the “effect rating on crop, d: soybean” value (soybean) was 0 (Herbicidal rate of 5% or less (almost no effect)). For the same molecule, the “herbicidal effect rating, L: windgrass” value (windgrass) was 0 (Herbicidal rate of 5% or less (almost no effect)), the “herbicidal effect rating, P: chickweed” value (chickweed) was 0 (Herbicidal rate of 5% or less (almost no effect)) and the “M: velvetleaf, herbicidal effect” value (velvetleaf) was 5 (Herbicidal rate of 90% or more (almost completely withered)). For the same molecule, the “g: rapeseed, effect on crop” value (rapeseed) was 5 (Herbicidal rate of 90% or more (almost completely withered)) and the “herbicidal effect rating, J: blackgrass” value (blackgrass) was 0 (Herbicidal rate of 5% or less (almost no effect)).

From US20230085307A1, “PYRIDAZINONE COMPOUND AND HERBICIDE” (NISSAN CHEMICAL CORPORATION, priority 2019, published 2023)
